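Assay format: 96-well plates, 48-hour exposure. Here, GI50 denotes the concentration required for 50% inhibition of growth.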 Calls of active or inactive are those of the source. Rule as the data show it: active = GI50 up to about 1.1 µM and inactive = higher.

Eleven molecules from ChEMBL document CHEMBL1201862, “PubChem BioAssay data set” (2004) can be followed below.

What all share (experiment): growth of human tumour cells (NCI), 48 h
Experiment [1] deals with HT-29.
Experiment [2] deals with MOLT-4.
The subject of experiment [3] is HOP-92.
Experiment [4] concerns SN12C.
Experiment [5] relates to OVCAR-8.
Experiment [6] concerns IGROV-1.
For experiment [7], the system named is ACHN.
The test system of experiment [8] is SK-MEL-28.
Experiment [9] concerns MDA-N.
Experiment [10] relates to SK-MEL-2.
In experiment [11] the test system is 786-0.
The subject of experiment [12] is RPMI-8226.
The subject of experiment [13] is SF-539.
For experiment [14], the system named is SF-268.
The test system of experiment [15] is MDA-MB-435.
Experiment [16] concerns HL-60.
Experiment [17] concerns KM12.
The subject of experiment [18] is TK-10.
For experiment [19], the system named is Malme-3M.

As to `CC1CCC2C(C)C(OC(=O)CCC(=O)O)OC3OC4(C)CCC1C32OO4` (stereo not given), the GI50 is 3.52 µM (inactive) in experiment [1]; 0.346 µM (active) in experiment [2]; 11.6 µM (inactive) in [3]; 18 µM (inactive) in experiment [4]; 3.47 µM (inactive) in experiment [5]; 10.4 µM (inactive) in [6]. Moreover, the GI50 was 4.52 µM (inactive) in [7]; 37.5 µM (inactive) in experiment [8]; 2.65 µM (inactive) in experiment [9]; 3.86 µM (inactive) in experiment [10]; 15.4 µM (inactive) in experiment [11]; 0.246 µM (active) in experiment [12]. Moreover, the GI50 in experiment [13] is 11 µM (inactive); in experiment [14], 16.7 µM (inactive); in experiment [15] it was 1.51 µM (inactive); in experiment [16] it was 0.427 µM (active); in experiment [17], 1.33 µM (inactive); in experiment [18], 2.99 µM (inactive).
As to `CC1OC(OC2C(O[C@H]3CC[C@@]4(C)C(=CC[C@H]5[C@@H]6C[C@@H]7O[C@]8(CC[C@H](C)CN8)[C@@H](C)[C@@H]7[C@@]6(C)CC[C@@H]54)C3)OC(CO)C(O)C2OC2OC(CO)C(O)C(O)C2O)C(O)C(O)C1O` (stereo not given in full), the GI50 was 17.8 µM (inactive) in experiment [1]; 18.9 µM (inactive) in experiment [2]; 17.5 µM (inactive) in experiment [3]; 20.8 µM (inactive) in [4]; 15.5 µM (inactive) in experiment [5]; 19.5 µM (inactive) in experiment [6]. For the same molecule, the GI50 was 17.6 µM (inactive) in experiment [7]; 19.1 µM (inactive) in experiment [8]; 20.7 µM (inactive) in experiment [9]; 18.4 µM (inactive) in [10]; 24 µM (inactive) in experiment [11]; 18 µM (inactive) in [19]. Further, the GI50 is 16.7 µM (inactive) in experiment [13]; 16.6 µM (inactive) in experiment [14]; 23.5 µM (inactive) in [15]; 15.5 µM (inactive) in [16]; 20 µM (inactive) in [17]; 17.3 µM (inactive) in experiment [18].
For the molecule `COP(=O)(/C=C/C(NC(=O)C(Cl)(Cl)Cl)c1ccccc1)OC` (stereo not given), the GI50 in experiment [1], in experiment [2], in experiment [3], in experiment [4], in experiment [5] and in [6] was > 100 µM (inactive) in each case. Also, the GI50 in [7], in [8], in experiment [9], in [10], in experiment [11] and in [12] was > 100 µM (inactive) each time. In addition, the GI50 in experiment [19], in [14], in experiment [15], in experiment [16], in experiment [17] and in experiment [18] was > 100 µM (inactive) throughout.
Regarding `CC1(C)O[C@H]2[C@@H]3N=C(c4ccccc4)O[C@@H]3C=C[C@H]2O1`, the GI50 in experiment [1] is > 100 µM (inactive); in experiment [2], > 100 µM (inactive); in [3], 83.2 µM (inactive); in experiment [4] it was > 100 µM (inactive); in [5] it was > 100 µM (inactive); in experiment [6], > 100 µM (inactive). In addition, the GI50 in experiment [7], in experiment [8], in experiment [9], in experiment [10], in experiment [11] and in experiment [12] was > 100 µM (inactive) throughout. The GI50 in [13] is > 100 µM (inactive); in [14] it was 17.6 µM (inactive); in experiment [15] it was > 100 µM (inactive); in experiment [16], > 100 µM (inactive); in [17], > 100 µM (inactive); in experiment [18], > 100 µM (inactive).
Take `NC12CC3C4CC5(N)CC3C(C1)C(C5)C4C2`: the GI50 in experiment [1], in experiment [2], in [3], in [4], in experiment [5] and in [6] was > 100 µM (inactive) in each case. For the same molecule, the GI50 in [7], in experiment [8], in [9], in experiment [10], in [11] and in experiment [19] was > 100 µM (inactive) throughout. For the same molecule, the GI50 in experiment [14], in experiment [15], in experiment [16], in experiment [17] and in experiment [18] was > 100 µM (inactive) each time.
With `Cc1ccc(N2C(=O)C=C(C3=C(O)C(=O)N(c4ccc(C)cc4)C3=O)C2=O)cc1`, the GI50 in experiment [1] was > 100 µM (inactive); in experiment [2] it was > 100 µM (inactive); in experiment [3] it was 46.5 µM (inactive); in experiment [4] it was > 100 µM (inactive); in experiment [5] it was > 100 µM (inactive); in experiment [6], > 100 µM (inactive). In addition, the GI50 in experiment [7], in experiment [8], in [9], in experiment [11], in [12] and in experiment [19] was > 100 µM (inactive) throughout. Besides, the GI50 in experiment [14], in experiment [15], in experiment [16] and in [18] was > 100 µM (inactive) in each case.
In the case of `COc1cc(S(=O)(=O)Nc2nc(-c3ccc(N)cc3)cs2)ccc1Cl`, the GI50 in [1] is 54 µM (inactive); in experiment [2], 53.7 µM (inactive); in [3], 64.9 µM (inactive); in experiment [4], 34.4 µM (inactive); in [5], 64.7 µM (inactive); in [6] it was 44.7 µM (inactive). The GI50 in [7] was 66.4 µM (inactive); in experiment [8], 69.3 µM (inactive); in experiment [9], 55.8 µM (inactive); in [10] it was 69.5 µM (inactive); in experiment [11], > 100 µM (inactive); in [19] it was > 100 µM (inactive). For the same molecule, the GI50 in [13] was > 100 µM (inactive); in experiment [14] it was 75.7 µM (inactive); in [15], 83.6 µM (inactive); in [16] it was 45.7 µM (inactive); in experiment [17] it was 72.1 µM (inactive); in experiment [18] it was 48 µM (inactive).
On to `COC(=O)C1C(=O)CC(C)(O)C(C(=O)OC)C1c1ccc(N(C)C)cc1` (stereo not given), for which the GI50 in experiment [1], in experiment [2], in experiment [3], in experiment [4], in experiment [5] and in experiment [6] was > 100 µM (inactive) throughout. Besides, the GI50 in experiment [7] is > 100 µM (inactive); in experiment [8], > 100 µM (inactive); in experiment [9] it was > 100 µM (inactive); in experiment [10], > 100 µM (inactive); in [11] it was 12 µM (inactive); in experiment [19] it was > 100 µM (inactive). In addition, the GI50 in [14], in [15], in experiment [16], in experiment [17] and in [18] was > 100 µM (inactive) each time.
Regarding `Cn1c(=O)cc(NNc2ccc(Br)cc2)[nH]c1=O`, the GI50 in experiment [1] is 3.53 µM (inactive); in [2], 0.558 µM (active); in experiment [3] it was 13.9 µM (inactive); in [4], 10.7 µM (inactive); in [5], 19.1 µM (inactive); in experiment [6] it was 11.1 µM (inactive). The GI50 in experiment [7] is 14 µM (inactive); in experiment [8], 17.3 µM (inactive); in [9] it was 14.7 µM (inactive); in experiment [11], 9.59 µM (inactive); in experiment [12] it was 6 µM (inactive); in [19], 16.6 µM (inactive). Also, the GI50 in experiment [13] is 3.31 µM (inactive); in experiment [15] it was 12.4 µM (inactive); in experiment [16], 2.99 µM (inactive); in [17], 2.24 µM (inactive); in [18], 20.3 µM (inactive).
With `O=C1[C@H](O)[C@@H]2CCC[C@@]23CCCN13`, the GI50 in [1], in experiment [2], in experiment [3], in experiment [4], in experiment [5] and in experiment [6] was > 100 µM (inactive) throughout. Moreover, the GI50 in experiment [7], in experiment [9], in experiment [11], in [12], in [13] and in experiment [14] was > 100 µM (inactive) each time. The GI50 in experiment [15], in experiment [16], in [17] and in experiment [18] was > 100 µM (inactive) each time.
For `O=C(O)CCNc1[nH]cnc2ncnc1-2`, the GI50 in experiment [1], in experiment [3], in experiment [4], in experiment [5], in experiment [6] and in [7] was > 100 µM (inactive) each time. In addition, the GI50 in experiment [8], in experiment [9], in experiment [10], in experiment [11], in [12] and in experiment [19] was > 100 µM (inactive) in each case. In addition, the GI50 in [14], in experiment [15], in experiment [16], in experiment [17] and in [18] was > 100 µM (inactive) throughout.
